The values below come from PubChem BioAssay AID1259333 (Broad Institute, 2017).

Each structure is given as a SMILES string. The source made the active and inactive calls. The rule behind the calls is not given here; tested in parental BL2 cells.

The assay can be described thus: loss of cell viability by ATP content – CellTiter-Glo, cytotoxicity control, dose response (AID 1259333).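 Note: 0% = vehicle neutral controls and -100% = reference inhibitor positive controls.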 As to conditions: cytotoxicity, CellTiter-Glo ATP luminescence; at 10 µM (top of the series). On the technique in general: In ATP-based viability assays light output follows the ATP content of the culture.
On to `Nc1ccc(-c2cccc3c(=O)cc(N4CCOCC4)oc23)cc1`, for which the activity change, negative = cytotoxicity is 15.1% (inactive).
For `O=C(C[C@@H]1CC[C@H]2[C@@H](COC[C@@H](O)CN2Cc2cc(F)ccc2F)O1)NCc1ccc(Oc2ccccc2)cc1` the value was 14.2% (inactive).
For `NC(c1ccccc1)c1csc(NC(=O)Nc2cccc(C(F)(F)F)c2)n1` (configuration not stated) the value was -26.9% (inactive); for `C[C@H]1CCCC(=O)CCC/C=C/c2cc(O)cc(O)c2C(=O)O1`, 29.3% (inactive); for `CC(=O)Nc1ccc(S(=O)(=O)c2ccc(N)cc2)cc1`, 13.9% (inactive).
With `Nc1nc(=O)c2ccccc2s1`, the activity change, negative = cytotoxicity is 19.7% (inactive).
For `O=C(O)c1ccc(Nc2nc3c(s2)CCCC3)cc1` the value was 38.4% (inactive); for `c1ccc(OCCSc2nnc3sc4ccccc4n23)cc1`, -14.5% (inactive).
Next, `COc1cccc(S(=O)(=O)N(C)C[C@H]2OCc3ccccc3-c3c(n(C)c4ccccc34)C(=O)N([C@@H](C)CO)C[C@@H]2C)c1`: 28.3% (inactive).
Take `Cc1noc(C)c1S(=O)(=O)Nc1ccc2c(c1)C(=O)N([C@@H](C)CO)C[C@@H](C)[C@@H](CN(C)C(=O)Nc1cccc3ccccc13)OCCCC[C@H](C)O2`: the activity change, negative = cytotoxicity was 25.9% (inactive).
For the compound `COc1ccc(C#Cc2ccc([C@H]3[C@H]4CN(C(=O)c5ccncc5)CCCCN4[C@H]3CO)cc2)cc1`, the activity change, negative = cytotoxicity was 30.7% (inactive).
In the case of `COc1cccc(S(=O)(=O)N(C)C[C@@H]2OCc3ccccc3-c3c(n(C)c4ccccc34)C(=O)N([C@@H](C)CO)C[C@@H]2C)c1`, the activity change, negative = cytotoxicity was 3.23% (inactive).
As to `COc1ccc(CN2CC3(CN(C(=O)Cc4ccccc4)C3)c3c([nH]c4cc(OC)ccc34)[C@H]2CO)cc1`, the activity change, negative = cytotoxicity is 21.8% (inactive).
Regarding `C[C@H]1CN([C@@H](C)CO)C(=O)c2c(c3ccccc3n2C)-c2ccccc2CO[C@H]1CN(C)S(=O)(=O)c1ccc([N+](=O)[O-])cc1`, the activity change, negative = cytotoxicity was 75.5% (inactive).
Consider `C[C@H](CO)N1C[C@H](C)[C@H](CN(C)C(=O)C2CCOCC2)Oc2ncc(C#CCc3ccccc3)cc2C1=O`, for which the activity change, negative = cytotoxicity is 0.181% (inactive).
Next, `O=C(/C=C/c1cccs1)c1ccc(N2CCOCC2)cc1`: 23.6% (inactive); `CCN1C(=O)C(CC(=O)Nc2ccc(F)cc2)N(Cc2ccco2)C1=S` (configuration not stated): 18% (inactive); `Cc1ccc(-c2cc(C(=O)N(C)CC(=O)Nc3ccccc3Br)c3ccccc3n2)o1`: 130% (inactive).
`c1ccc2c(c1)OCC(C1=NCCN1)O2` (configuration not stated): the activity change, negative = cytotoxicity is 56.8% (inactive).
In the case of `COc1ccc(C(=O)CCN2CCc3cc(OC)c(OC)cc3C2)cc1`, the activity change, negative = cytotoxicity was 22.2% (inactive).
Take `O=c1cc(-c2ccc(O)cc2)oc2ccc3ccccc3c12`: the activity change, negative = cytotoxicity was 20.1% (inactive).
Next, `Cc1ccccc1C(=O)N1CCC(C(=O)Nc2nc3ccc(F)cc3s2)CC1`: 18.4% (inactive); `COc1ccc(S(=O)(=O)Nc2ccc3c(c2)C(=O)N([C@H](C)CO)C[C@@H](C)[C@@H](CN(C)Cc2ccc(C(F)(F)F)cc2)OCCCC[C@@H](C)O3)cc1`: 4.86% (inactive); `CCOc1ncccc1C(=O)OC(C)C(=O)Nc1ccc(Cl)cn1` (configuration not stated): 24.8% (inactive).
Regarding `C=C1C(=O)OC2C=C(CO)CCC=C(CO)CC(OC(=O)C(C)C)C12` (configuration not stated), the activity change, negative = cytotoxicity was 38.2% (inactive).
For `CCOC(=O)c1c(SCCN2CCCC2)n(-c2ccccc2)c(=S)n(-c2ccccc2)c1=O` the value was 63.8% (inactive); for `O=C1C=CC(=O)C2=C1C1c3ccccc3C2c2ccccc21`, 90.3% (inactive).
